# What was measured:
# [1] = Biochemical indices of mice blood serum, acute experiment (Table 8); assay type: in vivo, F1 (C57B1×CBA); details: 500 mg/kg i.v.; for Total protein: in g/L (unit assumed)
# Description: The effect of S-ethylisothiouronium diethylphosphate on body constituents was estimated in chronic and acute experiments. These experiments were conducted on F1 (C57B1×CBA) line mice and biochemical tests were made after a single administration of S-ethylisothiouronium diethylphosphate, injected intravenously at doses of 100 mg/kg (in the chronic experiment) and 500 mg/kg (in the acute experiment).
# In the acute experiment, blood was taken 30, 60 and 75 minutes after the administration of the medicine. In the chronic experiment (which lasted 30 days), blood was daily examined 1 hour after the injection. Terms of the study were 1, 7, 14, and 21 days. The concentrations of total protein, total cholesterol, and glucose in mice blood serum were determined by conventional methods. Total protein was determined by a biuret method, total cholesterol--by like method, glucose--by the glucose-oxidase method.
# Mouse blood was obtained after rapid decapitation. Tested material was sampled at the same time of the day and on the same season.
# Blood for serum was sampled into centrifuge test tubes, put into the thermostat for 30-40 minutes; the clot was outlined by a needle, then it was put into a refrigerator for 1 hour+4° C. After cooling it was centrifuged at 3000 RPM during 10-15 minutes. Serum with no signs of hemolysis was sampled into a clean tube. All quantitative indices of the blood biochemical characteristics were obtained by spectrophotometric measurements. Calibration curves to determine total protein and cholesterol were constructed in advance.
# [2] = test system: rats exposed to an oxygen pressure of 3 atm; assay: Survival under oxygen pressure of 3 atm, rats (Table 15); assay type: in vivo, Wistar rat; details: 5 hours
# Description: (§1) Animals were exposed to oxygen under increased pressure in a hyperbaric chamber <<Mana-2≤≤ for treatment of infants above 1 year, which was adjusted for the experiments on animals. The hyperbaric chamber design permitted to create excessive pressure up to 3 atm and to observe animal behavior from outside.
# (§2) The experiments were performed on males of F1 (CBAx57B1) mice line and on males of Wistar rat line. Animals were placed in the hyperbaric chamber in plastic boxes and the atmospheric air was replaced by oxygen. The period of compression-decompression was 10 minutes. The exposure of the animals to an oxygen pressure of 3 atm during a period of 2 hours caused only some increase in their motion activity. Further staying of rats and mice in those conditions led to a decrease in the motion activity, to asphyxia with short periods of excitement and cramps. The death of some animals was registered after 2.5-3 hours, 50% after 4 hours, and 75% of mice and 100% of rats were dead after 5 hours.
# (§3) When the influence of Difetur and Etyron was studied, the animals were exposed to an oxygen pressure of 3 atm during 5 hours if not otherwise specified. Preparations were injected 5-10 minutes before the session.
# [3] = Lung coefficient under hyperbaric oxygen (3 atm); assay type: in vivo, mice and rats; details: for Lung coefficient (lung mass/body mass X100): hyperbaric oxygen
# Description: as §1, §2, §3
# After the session the dead animals were autopsied, their lungs were removed, and the index <<lung mass in gr./body mass in gr. X100>> (i.e. lung coefficient) was defined.
# [4] = test system: system hemodynamic indices; assay: System hemodynamic indices in narcotised cats (Table 2); assay type: in vivo
# Description: An experimental study of the S-ethylisothiouronium diethylphosphate effect on the indices of system hemodynamics were performed on 8 narcotised cats with a body mass of 2-4 kg. Urethane (30% solution intraperitoneally, 1-1.2 g/kg) was used for narcostisation. To determine the period of maximum efficiency and duration of the preparation effect, the major parameters of the blood circulation were determined before its introduction (initial data) and on the 2nd, 15th, 30th, and 60th minute after the introduction, at a dose of 5 mg/kg.
# The system hemodynamics was estimated on the basis of the following indices: arterial blood pressure (AP), heart rate (HR), minute volume of blood circulation (MVC), stroke volume of the heart (SV), total vascular peripheral resistance (PR), work of the left ventricle (Alv).
# The arterial pressure was measured in the left […] of cats by a mercury pressure gauge. To prevent blood clotting, 0.2-0.3 ml (1000-1500 units) of heparin was injected intravenously. Heart rate was calculated according to the R--R interval of electrocardiogram. Recording was performed through two-channel electrocardiograph. MVC was calculated according to Ramirez A. A. et al. (1956). SV, ARV, and PR were calculated from the data on MVC, AP, central blood volume, and HR using C. G Wiggers formular (1947). Quantitative material obtained in the experiments was subjected to statistical analysis by the Student t-test.
# [5] = 5 mg/kg i.v., 2 min after injection
# [6] = 5 mg/kg i.v., 15 min after injection
# [7] = 5 mg/kg i.v., 30 min after injection
# [8] = 5 mg/kg i.v., 60 min after injection
smiles,measurement,setting,value
CCSC(=N)N [S-ethylisothiouronium diethylphosphate],Body mass,[1]; 30 min,24.8 ± 1.2 g
same,Glucose,[1]; 30 min,13.4 ± 2.6 mmol/L
same,Total cholestrol,[1]; 30 min,7.8 ± 1.2 mmol/L
same,Total protein,[1]; 30 min,99.0 ± 4.3
same,Serum biochemistry in words,[1]; 30 minutes,"an increase in the concentration of total protein, cholesterol and glucose was observed, which subsequently had the tendency for normalization"
same,Body mass,[1]; 60 min,26.1 ± 1.8 g
same,Glucose,[1]; 60 min,9.0 ± 0.8 mmol/L
same,Total cholestrol,[1]; 60 min,7.2 ± 1.6 mmol/L
same,Total protein,[1]; 60 min,89.4 ± 4.6
same,Body mass,[1]; 75 min,26.0 ± 0.5 g
same,Glucose,[1]; 75 min,6.6 ± 1.0 mmol/L
same,Total cholestrol,[1]; 75 min,5.4 ± 1.2 mmol/L
same,Total protein,[1]; 75 min,87.6 ± 3.8
same,Number of survived animals,[2]; 5 mg/kg,60%
same,Number of survived animals,[2]; 10 mg/kg,50%
same,Number of survived animals,[2]; 20 mg/kg,70%
same,Lung coefficient (lung mass/body mass X100),[3]; 5 mg/kg,0.95±0.09
same,Lung coefficient (lung mass/body mass X100),[3]; 10 mg/kg,0.97±0.09
same,Lung coefficient (lung mass/body mass X100),[3]; 20 mg/kg,0.88±0.08
same,Lung protection in words,[3]; in vivo,considerable protective efficiency regarding the lung tissue
same,AP increase relative to the initial level,"[4]; 5 mg/kg i.v., 2nd minute",41%
same,Alv above the initial value,"[4]; 5 mg/kg i.v., 2nd minute",89%
same,MVC increase,"[4]; 5 mg/kg i.v., 2nd minute",7%
same,"PR, % of the initial level","[4]; 5 mg/kg i.v., 2nd minute",135%
same,Alv above the initial value,"[4]; 5 mg/kg i.v., 15th minute",22%
same,MVC decrease,"[4]; 5 mg/kg i.v., 15th minute",11%
same,MVC decrease,"[4]; 5 mg/kg i.v., 30th minute",22%
same,AP above the initial level,"[4]; 5 mg/kg i.v., 60th minute",11%
same,PR above the initial value,"[4]; 5 mg/kg i.v., 60th minute",58%
same,AP,[4]; [5],168 ± 9.9 mm Hg
same,Alv,[4]; [5],486.2 ± 136.8 g·cm
same,HF,[4]; [5],166 ± 17.9 per min.
same,MVC,[4]; [5],101.9 ± 6.8 mL/min
same,PR,[4]; [5],138.6 ± 10.5 10^3 . din . c . cm^-5 /kg
same,Stroke volume,[4]; [5],2.14 ± 0.45 mL
same,AP,[4]; [6],158 ± 8.1 mm Hg
same,Alv,[4]; [6],317.1 ± 59.4 g·cm
same,HF,[4]; [6],178 ± 15.4 per min.
same,MVC,[4]; [6],84.3 ± 5.7 mL/min
same,PR,[4]; [6],153.8 ± 7.1 10^3 . din . c . cm^-5 /kg
same,Stroke volume,[4]; [6],1.46 ± 0.25 mL
same,AP,[4]; [7],152 ± 8.4 mm Hg
same,Alv,[4]; [7],251.9 ± 50.3 g·cm
same,HF,[4]; [7],192 ± 11.9 per min.
same,MVC,[4]; [7],74.1 ± 5.2 mL/min
same,PR,[4]; [7],168.5 ± 13.0 10^3 . din . c . cm^-5 /kg
same,Stroke volume,[4]; [7],1.23 ± 0.21 mL
same,AP,[4]; [8],132 ± 9.3 mm Hg
same,Alv,[4]; [8],211.3 ± 56.1 g·cm
same,HF,[4]; [8],188 ± 10.4 per min.
same,MVC,[4]; [8],67.6 ± 8.4 mL/min
same,PR,[4]; [8],161.5 ± 14.1 10^3 . din . c . cm^-5 /kg
same,Stroke volume,[4]; [8],1.13 ± 0.26 mL
same,Duration of hypertensive effect,"[4]; 5 mg/kg i.v., single injection",up to 1 hour
same,Effect on system hemodynamics in words,[4]; cats,on the 30th minute it returned to the initial level

# Source: patent US6160008A, “Pharmaceutical compositions comprising S-alkylisothiouronium derivatives” (priority 1996, dated 2000)
